Results from US9682993B2, “Anticancer compounds” (ST. JUDE CHILDREN'S RESEARCH HOSPITAL, priority 2012, dated 2017).

Key:
cell lines investigated = experiment: Drug combination assays, cell line not stated; format: cell-based; details: all cell lines investigated
[1] = test system: SK-MEL-2 xenograft tumors; experiment: In vivo tumor xenograft study; design: species or system C.B-17 scid mice
Experimental: Xenograft tumors were first established from an SK-MEL-2 cell culture at the St. Jude Children's Research Hospital Xenograft Core. After these tumors were established as a mouse xenograft model, they were routinely maintained in the C.B-17 scid strain (Taconic Farms, Germantown, N.Y.). Experimental animals were prepared by transplanting small pieces of dissected tumors from donor animals into recipient mice. All animal studies were performed in accordance with the St. Jude Children's Research Hospital Animal Care and Use Committee. SK-MEL-2 xenograft tumors were transplanted into male C.B-17 scid mice on Day −21. On Days −7 to −5, a jugular vein catheter was surgically implanted into each mouse. […] Infusions were carried out by placing the animals inside a continuous infusion system (Instech Laboratories, Plymouth Meeting, Pa.), and delivering the vehicle or drug solution via the jugular catheter at a rate of 4 μL/min with a SP230iw syringe pump (WPI, Sarasota, Fla.). […] Tumors were continuously measured during and after infusion periods, 5 times per week (weekdays). Tumor volumes were determined based on the following equation: Tuvol=(δ1/2+δ2/2)^1.5708, where δ1 and δ2 are diameters measured with a caliper at right angles of each other. The size of the tumors ranged from 0.2 to 0.5 cm^3 at the times the infusions were initiated.
The efficacy of compound 20 in the inhibition of tumor growth in mice was evaluated using the methods as described herein above. Thus, SK-MEL-2 tumors were transplanted into male C.B-17 scid mice. The animals were subsequently infused over 4 h with either vehicle (8 mice) or compound 20 (9 mice) for 5 consecutive days.

[2] = Maximum tolerated dose study (weight loss); format: in vivo, C.B-17 scid mice; details: 50 mg/kg four hour infusion daily for five days; day 5 of infusion
Experimental: Xenograft tumors were first established from an SK-MEL-2 cell culture at the St. Jude Children's Research Hospital Xenograft Core. After these tumors were established as a mouse xenograft model, they were routinely maintained in the C.B-17 scid strain (Taconic Farms, Germantown, N.Y.). Experimental animals were prepared by transplanting small pieces of dissected tumors from donor animals into recipient mice. All animal studies were performed in accordance with the St. Jude Children's Research Hospital Animal Care and Use Committee. SK-MEL-2 xenograft tumors were transplanted into male C.B-17 scid mice on Day −21. On Days −7 to −5, a jugular vein catheter was surgically implanted into each mouse. […] Tumors were continuously measured during and after infusion periods, 5 times per week (weekdays). Tumor volumes were determined based on the following equation: Tuvol=(δ1/2+δ2/2)^1.5708, where δ1 and δ2 are diameters measured with a caliper at right angles of each other. […]
The in vivo effects, e.g. weight loss, of compound 20 were evaluated in mice using the methods described herein above. […] Weight of the test animals was determined daily (5 weight measurements/week). […]

[3] = 50 mg/kg over 4 h, once a day for 5 days

CNC(=O)O[C@@H](C)/C=C\C(=O)N[C@H]1CC[C@@H](C/C=C(C)/C=C/[C@@H]2C[C@]3(CO3)CC(C)(C)O2)CC1 [compound 20, (S,Z)-5-(((1R,4R)-4-((2E,4E)-5-((3R,5S)-7,7-Methyl-1,6-Dioxaspiro[2.5]Octan-5-Yl)-3-Methylpenta-2,4-Dien-1-Yl)Cyclohexyl)Amino)-5-Oxopent-3-En-2-Yl Methylcarbamate]
synergy with PI3K/mTOR inhibition (cell lines investigated): synergy is also seen
inhibition of tumor growth during the infusion period [1, 3]: 100%
inhibition of tumor growth subsequent to the dosing period [1, 3]: significant inhibition
fatalities or behavioral changes versus control infusion ([1]; infusion over 4 h for 5 consecutive days): No differences in fatalities or behavioral changes
average weight loss [2]: 12.7%
